Assay results from PubChem BioAssay AID1963433 (Molecular Pharmacology Branch, DTP, NCI, 2024).

System: 772245-204-R-J1-PDC complex spheroid growth
Experiment: Anticancer human tumor 772245-204-R-J1-PDC patient-derived rhabdomyosarcoma cell line growth inhibition [Asc]
Details: for IC50: curve of first compound; for viability, T/C: stronger effect = lower value
Outline: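 Complex spheroids combining tumor cells with HUVEC endothelial cells and human MSCs, at 37 degrees C, 5% CO2; agents tested alone or combined, half-log dilutions from at or near clinical Cmax, or 10 microM if Cmax unknown.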

[1] = second compound 0.01 µM, first compound 0.0316 µM
[2] = second compound 0.01 µM, first compound 0.1 µM
[3] = second compound 0.01 µM, first compound 0.316 µM
[4] = second compound 0.01 µM, first compound 1 µM
[5] = second compound 0.0316 µM, first compound 0.0316 µM
[6] = second compound 0.0316 µM, first compound 0.1 µM
[7] = second compound 0.0316 µM, first compound 0.316 µM
[8] = second compound 0.0316 µM, first compound 1 µM
[9] = second compound 0.1 µM, first compound 0.0316 µM
[10] = second compound 0.1 µM, first compound 0.1 µM
[11] = second compound 0.1 µM, first compound 0.316 µM
[12] = second compound 0.1 µM, first compound 1 µM
[13] = second compound 0.316 µM, first compound 0.0316 µM
[14] = second compound 0.316 µM, first compound 0.1 µM
[15] = second compound 0.316 µM, first compound 0.316 µM
[16] = second compound 0.316 µM, first compound 1 µM
[17] = second compound 1 µM, first compound 0.0316 µM
[18] = second compound 1 µM, first compound 0.1 µM
[19] = second compound 1 µM, first compound 0.316 µM
[20] = second compound 1 µM, first compound 1 µM
[21] = second compound 0.01 µM, first compound 0.00316 µM
[22] = second compound 0.01 µM, first compound 0.01 µM
[23] = second compound 0.0316 µM, first compound 0.00316 µM
[24] = second compound 0.0316 µM, first compound 0.01 µM
[25] = second compound 0.1 µM, first compound 0.00316 µM
[26] = second compound 0.1 µM, first compound 0.01 µM
[27] = second compound 0.316 µM, first compound 0.00316 µM
[28] = second compound 0.316 µM, first compound 0.01 µM
[29] = second compound 1 µM, first compound 0.00316 µM
[30] = second compound 1 µM, first compound 0.01 µM
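Further: compound exposure lasted seven days.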
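Wherever viability, T/C is given: 100% = DMSO vehicle control viability.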

Structure (SMILES) | IC50 (second compound 0.01 µM) [nM] | IC50 (second compound 0.0316 µM) [nM] | IC50 (second compound 0.1 µM) [nM] | IC50 (second compound 0.316 µM) [nM] | IC50 (second compound 1 µM) [nM] | viability, T/C [1] [%] | viability, T/C [2] [%] | viability, T/C [3] [%] | viability, T/C [4] [%] | viability, T/C [5] [%] | viability, T/C [6] [%] | viability, T/C [7] [%] | viability, T/C [8] [%] | viability, T/C [9] [%] | viability, T/C [10] [%] | viability, T/C [11] [%] | viability, T/C [13] [%] | viability, T/C [14] [%] | viability, T/C [17] [%] | viability, T/C [18] [%] | also measured
C=CC(=O)N1CCN(c2nc(=O)n(-c3c(C)ccnc3C(C)C)c3nc(-c4c(O)cccc4F)c(F)cc23)C(C)C1 (stereo not given) + CNC(C)C(=O)NC1CN(S(=O)(=O)c2cccc(S(=O)(=O)N3CCC4CCC(C(=O)NC(c5ccccc5)c5ccccc5)N4C(=O)C(NC(=O)C(C)NC)C3)c2)CCC2CCC(C(=O)NC(c3ccccc3)c3ccccc3)N2C1=O | > 10000 | > 10000 | > 10000 | > 10000 | > 10000 | 98.5 | 84.7 | 91.6 | 100 | 94.4 | 93.6 | 101 | 92.7 | 92 | 88.9 | 108 | 94.5 | 95.5 | 106 | 94.3 | viability, T/C (second compound 0.01 µM, first compound 3.16 µM): 92%; viability, T/C (second compound 0.01 µM, first compound 10 µM): 89%; viability, T/C (second compound 0.0316 µM, first compound 3.16 µM): 101%; viability, T/C (second compound 0.0316 µM, first compound 10 µM): 90.6%; viability, T/C [12]: 97.2%; viability, T/C (second compound 0.1 µM, first compound 3.16 µM): 88.8%; viability, T/C (second compound 0.1 µM, first compound 10 µM): 92.2%; viability, T/C [15]: 97.6%; viability, T/C [16]: 103%; viability, T/C (second compound 0.316 µM, first compound 3.16 µM): 95.7%; viability, T/C (second compound 0.316 µM, first compound 10 µM): 80.1%; viability, T/C [19]: 101%; viability, T/C [20]: 97.2%; viability, T/C (second compound 1 µM, first compound 3.16 µM): 88.9%; viability, T/C (second compound 1 µM, first compound 10 µM): 95%
COc1c(OCCCN2CCOCC2)ccc2c3n(c(=NC(=O)c4cnc(N)nc4)nc12)CCN3 + CNC(C)C(=O)NC1CN(S(=O)(=O)c2cccc(S(=O)(=O)N3CCC4CCC(C(=O)NC(c5ccccc5)c5ccccc5)N4C(=O)C(NC(=O)C(C)NC)C3)c2)CCC2CCC(C(=O)NC(c3ccccc3)c3ccccc3)N2C1=O | 193 | 89.5 | 114 | 72.6 | 111 | 81.7 | 64.3 | 38.4 | 26.9 | 78.2 | 47.9 | 38.8 | 27.2 | 68.1 | 53.8 | 35.4 | 73.4 | 40.1 | 75.7 | 51.3 | viability, T/C [21]: 108%; viability, T/C [22]: 95.2%; viability, T/C [23]: 93.7%; viability, T/C [24]: 112%; viability, T/C [25]: 97.4%; viability, T/C [26]: 97.2%; viability, T/C [12]: 23.2%; viability, T/C [27]: 92.9%; viability, T/C [28]: 93.8%; viability, T/C [15]: 30.7%; viability, T/C [16]: 22%; viability, T/C [29]: 86%; viability, T/C [30]: 96.6%; viability, T/C [19]: 32.5%; viability, T/C [20]: 21.6%
NC1CCC(NC2CC2c2ccccc2)CC1 (stereo not given) + CNC(C)C(=O)NC1CN(S(=O)(=O)c2cccc(S(=O)(=O)N3CCC4CCC(C(=O)NC(c5ccccc5)c5ccccc5)N4C(=O)C(NC(=O)C(C)NC)C3)c2)CCC2CCC(C(=O)NC(c3ccccc3)c3ccccc3)N2C1=O | > 100 | > 100 | > 100 | > 100 | > 100 | 98.5 | 89.5 | – | – | 90.7 | 88 | – | – | 90.9 | 82.2 | – | 88.3 | 98.7 | 78.9 | 91.2 | viability, T/C (second compound 0.01 µM, first compound 0.000316 µM): 111%; viability, T/C (second compound 0.01 µM, first compound 0.001 µM): 104%; viability, T/C [21]: 91.6%; viability, T/C [22]: 105%; viability, T/C (second compound 0.0316 µM, first compound 0.000316 µM): 85.7%; viability, T/C (second compound 0.0316 µM, first compound 0.001 µM): 91.9%; viability, T/C [23]: 88.5%; viability, T/C [24]: 94.8%; viability, T/C (second compound 0.1 µM, first compound 0.000316 µM): 92%; viability, T/C (second compound 0.1 µM, first compound 0.001 µM): 103%; viability, T/C [25]: 87.5%; viability, T/C [26]: 88.4%; viability, T/C (second compound 0.316 µM, first compound 0.000316 µM): 97.1%; viability, T/C (second compound 0.316 µM, first compound 0.001 µM): 90.1%; viability, T/C [27]: 102%; viability, T/C [28]: 86.9%; viability, T/C (second compound 1 µM, first compound 0.000316 µM): 100%; viability, T/C (second compound 1 µM, first compound 0.001 µM): 88.1%; viability, T/C [29]: 92.9%; viability, T/C [30]: 86.6%
